The values that follow come from patent US11136296B2, “Substituted N-arylethyl-2-arylquinoline-4-carboxamides and use thereof” (Bayer Aktiengesellschaft, priority 2017, dated 2021).

Some results are limits rather than exact numbers.

Chain of FP receptor (P43088 whole entry): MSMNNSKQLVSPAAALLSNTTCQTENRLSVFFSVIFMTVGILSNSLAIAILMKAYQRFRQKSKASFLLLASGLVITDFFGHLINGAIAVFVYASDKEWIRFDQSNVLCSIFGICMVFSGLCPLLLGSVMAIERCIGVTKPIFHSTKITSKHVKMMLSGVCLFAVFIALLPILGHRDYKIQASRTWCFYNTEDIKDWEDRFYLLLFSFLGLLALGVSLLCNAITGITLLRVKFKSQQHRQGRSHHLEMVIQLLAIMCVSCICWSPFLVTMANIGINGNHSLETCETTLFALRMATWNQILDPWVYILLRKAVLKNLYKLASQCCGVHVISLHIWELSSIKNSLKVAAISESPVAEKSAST

This test deals with FP receptor (Homo sapiens (Human), UniProt P43088). Kind of test: In vitro test of inhibition of human FP receptor activity (PGF2α-induced calcium flux in FP-expressing CHEM1 cells). Format: cell-based. The conditions noted are these: PGF2α-induced (2 nM) calcium flux in FP-expressing CHEM1 cells; some as mean values from multiple determinations. An excerpt:
Table 1 below lists the IC50 values from this assay for individual working examples of the invention (some as mean values from multiple independent individual determinations): […]
As to `COc1ccc(F)cc1C(C)(CNC(=O)c1c(C)c(-c2ccccc2)nc2ccc(Br)cc12)CC(=O)O` (single isomer, unassigned; (-)) [Example 134, (−)-4-{[(6-Bromo-3-methyl-2-phenylquinolin-4-yl)carbonyl]amino}-3-(5-fluoro-2-methoxyphenyl)-3-methylbutanoic Acid], the half-inhibitory concentration (IC50) came to 800 nM.
Consider `COc1c(F)cc(F)cc1C(C)(CNC(=O)c1c(C)c(-c2ccccc2)nc2ccc(Br)cc12)CC(=O)O` (single isomer, unassigned; (-)) [Example 137, (−)-4-{[(6-Bromo-3-methyl-2-phenylquinolin-4-yl)carbonyl]amino}-3-(3,5-difluoro-2-methoxyphenyl)-3-methylbutanoic Acid], for which the IC50 is 440 nM.
As to `COc1cc(F)ccc1C(C)(CNC(=O)c1c(C)c(-c2ccccc2)nc2ccc(Br)cc12)CC(=O)O` (single isomer, unassigned; (-)) [Example 140, (−)-4-{[(6-Bromo-3-methyl-2-phenylquinolin-4-yl)carbonyl]amino}-3-(4-fluoro-2-methoxyphenyl)-3-methylbutanoic Acid], the half-maximal inhibitory concentration (IC50) is greater than 1000 nM.
Regarding `COc1cccc(F)c1C(C)(CNC(=O)c1c(C)c(-c2ccccc2)nc2ccc(Br)cc12)CC(=O)O` (single isomer, unassigned; (-)) [Example 144, (−)-4-{[(6-Bromo-3-methyl-2-phenylquinolin-4-yl)carbonyl]amino}-3-(2-fluoro-6-methoxyphenyl)-3-methylbutanoic Acid], the IC50 amounted to 130 nM.
As to `Cc1c(-c2ccccc2)nc2ccc(Br)cc2c1C(=O)NC(C)C(CC(=O)O)c1ccccc1Cl` (single isomer, unassigned; (-)) [Example 146, (−)-4-{[(6-Bromo-3-methyl-2-phenylquinolin-4-yl)carbonyl]amino}-3-(2-chlorophenyl)pentanoic Acid], the half-inhibitory concentration (IC50) was greater than 1000 nM.
Regarding `Cc1c(-c2ccccc2)nc2ccc(Br)cc2c1C(=O)NC(C)C(CC(=O)O)c1ccccc1Cl` (single isomer, unassigned; (-)) [Example 149, (−)-4-{[(6-Bromo-3-methyl-2-phenylquinolin-4-yl)carbonyl]amino}-3-(2-chlorophenyl)pentanoic Acid], the half-inhibitory concentration (IC50) was greater than 1000 nM.
Turning to `Cc1c(-c2ccccc2)nc2ccc(Br)cc2c1C(=O)NCC(CCC(=O)O)c1ccccc1Cl` (single isomer, unassigned; (-)) [Example 152, (−)-5-{[(6-Bromo-3-methyl-2-phenylquinolin-4-yl)carbonyl]amino}-4-(2-chlorophenyl)pentanoic Acid], the concentration for half-maximal inhibition (IC50) worked out at 7.9 nM.
Take `Cc1c(-c2ccccc2)nc2ccc(Br)cc2c1C(=O)NCC(C)(CCC(=O)O)c1ccccc1Cl` (single isomer, unassigned; (-)) [Example 155, (−)-5-{[(6-Bromo-3-methyl-2-phenylquinolin-4-yl)carbonyl]amino}-4-(2-chlorophenyl)-4-methylpentanoic Acid]: the half-inhibitory concentration (IC50) came out at 60 nM.
Turning to `Cc1c(-c2ccccc2)nc2ccc(Br)cc2c1C(=O)NCC(CCC(=O)O)c1c(F)cccc1Cl` (single isomer, unassigned; (-)) [Example 158, (−)-5-{[(6-Bromo-3-methyl-2-phenylquinolin-4-yl)carbonyl]amino}-4-(2-chloro-6-fluorophenyl)pentanoic Acid], the half-maximal inhibitory concentration (IC50) amounted to 3.5 nM.
With `Cc1ccccc1C(CCC(=O)O)CNC(=O)c1c(C)c(-c2ccccc2)nc2ccc(Br)cc12` (single isomer, unassigned; (-)) [Example 161, (−)-5-{[(6-Bromo-3-methyl-2-phenylquinolin-4-yl)carbonyl]amino}-4-(2-methylphenyl)pentanoic Acid], the 50% inhibitory concentration (IC50) was found to be 8.2 nM.
With `Cc1c(-c2ccccc2)nc2ccc(Br)cc2c1C(=O)NCC(CCC(=O)O)c1cc(F)ccc1Cl` (single isomer, unassigned; (-)) [Example 164, (−)-5-{[(6-Bromo-3-methyl-2-phenylquinolin-4-yl)carbonyl]amino}-4-(2-chloro-5-fluorophenyl)pentanoic Acid], the half-maximal inhibitory concentration (IC50) came out at 15 nM.
For `COc1ccccc1C(CCC(=O)O)CNC(=O)c1c(C)c(-c2ccccc2)nc2ccc(Br)cc12` (single isomer, unassigned; (-)) [Example 167, (−)-5-{[(6-Bromo-3-methyl-2-phenylquinolin-4-yl)carbonyl]amino}-4-(2-methoxyphenyl)pentanoic Acid], the IC50 is 26 nM.
With `Cc1c(-c2ccccc2)nc2ccc(Br)cc2c1C(=O)NCC(C)(CCC(=O)O)c1cc(F)ccc1Cl` (single isomer, unassigned; (-)) [Example 170, (−)-5-{[(6-Bromo-3-methyl-2-phenylquinolin-4-yl)carbonyl]amino}-4-(2-chloro-5-fluorophenyl)-4-methylpentanoic Acid], the IC50 was found to be 110 nM.
In the case of `Cc1c(-c2ccccc2)nc2ccc(Br)cc2c1C(=O)NCC(CCC(=O)O)c1ccccc1F` (single isomer, unassigned; (-)) [Example 176, (−)-5-{[(6-Bromo-3-methyl-2-phenylquinolin-4-yl)carbonyl]amino}-4-(2-fluorophenyl)pentanoic Acid] it was 12 nM.
In the case of `Cc1c(-c2ccccc2)nc2ccc(Br)cc2c1C(=O)NCC(CCC(=O)O)c1ccccc1OC(F)F` (single isomer, unassigned; (-)) [Example 179, (−)-5-{[(6-Bromo-3-methyl-2-phenylquinolin-4-yl)carbonyl]amino}-4-[2-(difluoromethoxy)phenyl]pentanoic Acid], the IC50 turned out to be 4.1 nM.
On to `Cc1c(-c2ccccc2)nc2ccc(Br)cc2c1C(=O)NCC(CCC(=O)O)c1c(F)cccc1F` (single isomer, unassigned; (-)) [Example 182, (−)-5-{[(6-Bromo-3-methyl-2-phenylquinolin-4-yl)carbonyl]amino}-4-(2,6-difluorophenyl)pentanoic Acid], for which the IC50 amounted to 7.2 nM.
In the case of `Cc1c(-c2ccccc2)nc2ccc(Br)cc2c1C(=O)NCC(CCC(=O)O)c1cccc(F)c1Cl` (single isomer, unassigned; (-)) [Example 185, (−)-5-{[(6-Bromo-3-methyl-2-phenylquinolin-4-yl)carbonyl]amino}-4-(2-chloro-3-fluorophenyl)pentanoic Acid] it was 3.9 nM; in that of `Cc1c(-c2ccccc2)nc2ccc(Br)cc2c1C(=O)NCC(c1ccccc1Cl)N(C)CC(=O)O` (single isomer, unassigned; (-)) [Example 188, (−)-N-[2-{[(6-Bromo-3-methyl-2-phenylquinolin-4-yl)carbonyl]amino}-1-(2-chlorophenyl)ethyl]-N-methylglycine], 54 nM.
For `Cc1c(-c2ccccc2)nc2ccc(Br)cc2c1C(=O)NCC(OCC(=O)O)c1ccccc1Cl` (single isomer, unassigned; (-)) [Example 193, (−)-[2-{[(6-Bromo-3-methyl-2-phenylquinolin-4-yl)carbonyl]amino}-1-(2-chlorophenyl)ethoxy]acetic Acid], the concentration for half-maximal inhibition (IC50) is 150 nM.
As for `Cc1c(-c2ccccc2)nc2ccc(Br)cc2c1C(=O)NCC(SCC(=O)O)c1ccccc1Cl` (single isomer, unassigned; (-)) [Example 196, (−)-{[2-{[(6-Bromo-3-methyl-2-phenylquinolin-4-yl)carbonyl]amino}-1-(2-chlorophenyl)ethyl]sulfanyl}acetic Acid], the IC50 stood at 12 nM.
